From patent US20070249590A1, “Substituted indolo[2,3-a]pyrrolo[3,4-c]carbazole compounds useful in treating kinase disorders” (priority 2005, published 2007)

Each molecule was assayed against T1, JAK3 (JH1 and JH2 domain) (Homo sapiens, UniProt P52333) (assay: JAK3 Kinase Assay (ELISA of peptide substrate phosphorylation)). Details: purified JAK3 enzyme, 10 μM ATP, biotinylated peptide substrate, 1 hour at room temperature.
T1 sequence (P52333 521-1111 limits assumed): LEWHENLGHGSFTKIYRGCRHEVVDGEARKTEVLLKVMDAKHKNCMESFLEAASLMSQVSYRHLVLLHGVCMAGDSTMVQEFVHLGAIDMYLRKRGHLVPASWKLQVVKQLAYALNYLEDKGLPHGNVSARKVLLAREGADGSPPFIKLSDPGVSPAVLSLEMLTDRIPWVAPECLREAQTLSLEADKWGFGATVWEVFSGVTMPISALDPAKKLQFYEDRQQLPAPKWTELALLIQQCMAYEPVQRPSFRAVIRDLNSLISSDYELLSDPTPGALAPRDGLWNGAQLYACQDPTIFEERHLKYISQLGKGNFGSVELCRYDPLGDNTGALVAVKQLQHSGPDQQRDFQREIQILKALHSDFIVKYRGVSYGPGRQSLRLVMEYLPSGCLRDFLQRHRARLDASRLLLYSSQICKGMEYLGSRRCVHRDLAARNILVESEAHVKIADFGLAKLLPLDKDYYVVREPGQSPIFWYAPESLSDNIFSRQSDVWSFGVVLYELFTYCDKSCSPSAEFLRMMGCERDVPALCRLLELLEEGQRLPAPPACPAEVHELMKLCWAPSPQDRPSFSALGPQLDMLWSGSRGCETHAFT
Type: biochemical
Procedure, shortened: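 Sf21-baculovirus-expressed JAK3 (JH1+JH2), glutathione-bead purified, with biotinylated peptide substrate (in buffer containing 10 μM ATP) in HEPES pH 7.5/MgCl2/DTT, 1 h RT. Product was captured on Neutravidin, detected with HRP anti-phosphotyrosine (PY99)/TMB, OD 450/650 nm. Triplicate 16-point half-log series from 200 μM gave IC50; otherwise % inhibition at 1 μM.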

Going from `O=C1NCc2c1c1c3cc(O)ccc3n3c1c1c2c2ccccc2n1CC(O)C(O)C3` (stereo not drawn) [Cpd 189, 3-hydroxy-12,13-(2,3-dihydroxy-butan-1,4-yl)-6,7,12,13-tetrahydro-5-oxo-5H-indolo[2,3-a]pyrrolo[3,4-c]carbazole] to `O=C1NCc2c1c1c3ccccc3n3c1c1c2c2ccccc2n1C[C@@H](O)[C@H](O)C3` [Cpd 19, 12,13-[(2R,3R)-dihydroxy-butan-1,4-yl]-6,7,12,13-tetrahydro-5-oxo-5H-indolo[2,3-a]pyrrolo[3,4-c]carbazole], the IC50 rises from 3 nM to 53 nM (18-fold). The first is the more potent here.

First: O=C1NCc2c1c1c3cc(/C=C/Cn4ccnc4)ccc3n3c1c1c2c2ccccc2n1CC(CO)C3 (stereo not drawn) [Cpd 219, 3-[(1E)-3-1H-imidazol-1-yl-prop-1-en-1-yl]-12,13-(2-hydroxymethyl-propan-1,3-yl)-6,7,12,13-tetrahydro-5-oxo-5H-indolo[2,3-a]pyrrolo[3,4-c]carbazole]
Second: O=C1NCc2c1c1c3cc(/C=C/Cn4ccnc4)ccc3n3c1c1c2c2ccccc2n1CC(O)C(O)C3 (stereo not drawn) [Cpd 201]
The IC50 of the first is 1.7-fold lower: 14 nM for the first, 24 nM for the second. The first is the more potent here.

`O=C1NC(=O)c2c1c1c3ccccc3n3c1c1c2c2ccccc2n1CC(O)(C(=O)NC1CCOC1=O)C(O)C3` (stereo not drawn) [Cpd 122, 12,13-{2-[(2-oxo-tetrahydro-furan-3-yl)carbamoyl]-2,3-dihydroxy-butan-1,4-yl}-12,13-dihydro-5,7-dioxo-6H-indolo[2,3-a]pyrrolo[3,4-c]carbazole] and `O=C1NC(=O)c2c1c1c3ccccc3n3c1c1c2c2ccccc2n1CC(O)(C(=O)N1CCN(CCO)CC1)C(O)C3` (stereo not drawn) [Cpd 130] are within 1.5-fold of each other in IC50: 63 nM for the first, 48 nM for the second.

First: O=C(NCCCn1ccnc1)OC1Cn2c3ccccc3c3c4c(c5c6ccccc6n(c5c32)CC1O)C(=O)NC4=O (stereo not drawn) [Cpd 91, 12,13-{2-[(3-imidazol-1-yl-prop-1-yl)carbamoyloxy]-3-hydroxy-butan-1,4-yl}-12,13-dihydro-5,7-dioxo-6H-indolo[2,3-a]pyrrolo[3,4-c]carbazole]
Second: COCCNC(=O)OC1Cn2c3ccccc3c3c4c(c5c6ccccc6n(c5c32)CC1O)C(=O)NC4=O (stereo not drawn) [Cpd 83, 12,13-{2-[(2-methoxy-ethyl)carbamoyloxy]-3-hydroxy-butan-1,4-yl}-12,13-dihydro-5,7-dioxo-6H-indolo[2,3-a]pyrrolo[3,4-c]carbazole]
The IC50 of the first is 1.5-fold higher: 44 nM for the first, 29 nM for the second. The second is the more potent here.

Going from `O=C1NC(=O)c2c1c1c3ccccc3n3c1c1c2c2ccccc2n1CC(O)C(O)CC3` (stereo not drawn) [Cpd 11, 12,13-(2,3-dihydroxy-pentan-1,5-yl)-12,13-dihydro-5,7-dioxo-6H-indolo[2,3-a]pyrrolo[3,4-c]carbazole] to `O=C(NCCc1ccccn1)OC1Cn2c3ccccc3c3c4c(c5c6ccccc6n(c5c32)CC1O)C(=O)NC4=O` (stereo not drawn) [Cpd 82, 12,13-{2-[(2-pyridin-2-yl-ethyl)carbamoyloxy]-3-hydroxy-butan-1,4-yl}-12,13-dihydro-5,7-dioxo-6H-indolo[2,3-a]pyrrolo[3,4-c]carbozole], the IC50 rises from 9 nM to 134 nM (15-fold).

First: O=C1NCc2c1c1c3ccccc3n3c1c1c2c2ccccc2n1CC(COC(=O)N1CC[C@@H](O)C1)C3 (stereo partly drawn) [Cpd 168, 12,13-(2-{[(3R)-3-hydroxy-pyrrolidin-1-yl]carbonyloxymethyl}-propan-1,3-yl)-6,7,12,13-tetrahydro-5-oxo-5H-indolo[2,3-a]pyrrolo[3,4-c]carbazole]
Second: O=C1NCc2c1c1c3ccccc3n3c1c1c2c2ccccc2n1CC(COC(=O)N1CCN(c2ccc(O)cc2)CC1)C3 (stereo not drawn) [Cpd 158, 12,13-(2-{[4-(4-hydroxy-phenyl)piperazin-1-yl]carbonyloxymethyl}-propan-1,3-yl)-6,7,12,13-tetrahydro-5-oxo-5H-indolo[2,3-a]pyrrolo[3,4-c]carbazole]
The IC50 of the first is 2.8-fold higher: 346 nM for the first, 123 nM for the second.

Going from `O=C(NCCc1ccccn1)OCC1(O)Cn2c3ccccc3c3c4c(c5c6ccccc6n(c5c32)C1)C(=O)NC4` (stereo not drawn) [Cpd 139] to `O=C(NCCCn1ccnc1)OCC1(O)Cn2c3ccccc3c3c4c(c5c6ccccc6n(c5c32)C1)C(=O)NC4` (stereo not drawn) [Cpd 152, 12,13-{2-hydroxy-2-[(3-1H-imidazol-1-yl-prop-1-yl)carbamoyloxymethyl]-propan-1,3-yl}-6,7,12,13-tetrahydro-5-oxo-5H-indolo[2,3-a]pyrrolo[3,4-c]carbazole], the IC50 falls from 160 nM to 84 nM (1.9-fold).

`CN1CCN(CCCNC(=O)OC2CCn3c4ccccc4c4c5c(c6c7ccccc7n(c6c43)C2)C(=O)NC5=O)CC1` (stereo not drawn) [Cpd 43, 12,13-(2-{[3-(4-methyl-piperazin-1-yl)prop-1-yl]carbamoyloxy}-butan-1,4-yl)-12,13-dihydro-5,7-dioxo-6H-indolo[2,3-a]pyrrolo[3,4-c]carbazole] and `CN1CCN(CCCNC(=O)OC2Cn3c4ccccc4c4c5c(c6c7ccccc7n(c6c43)CC2O)C(=O)NC5=O)CC1` (stereo not drawn) [Cpd 90, 12,13-(2-{[3-(4-methyl-piperazin-1-yl)prop-1-yl]carbamoyloxy}-3-hydroxy-butan-1,4-yl)-12,13-dihydro-5,7-dioxo-6H-indolo[2,3-a]pyrrolo[3,4-c]carbazole] are within 1.5-fold of each other in IC50: 112 nM for the first, 144 nM for the second.

Going from `COc1ccc(CCNC(=O)OCC2Cn3c4ccccc4c4c5c(c6c7ccccc7n(c6c43)C2)C(=O)NC5)cc1OC` (stereo not drawn) [Cpd 161, 12,13-(2-{[2-(3,4-dimethoxy-phenyl)ethyl]carbamoyloxymethyl}-propan-1,3-yl)-6,7,12,13-tetrahydro-5-oxo-5H-indolo[2,3-a]pyrrolo[3,4-c]carbazole] to `CC1(C)O[C@@H]2Cn3c4ccccc4c4c5c(c6c7ccccc7n(c6c43)C[C@H]2O1)C(=O)NC5` [Cpd 17, 12,13-[(4R,5R)-2,2-dimethyl-[1,3]dioxolo[4,5-b]butan-1,4-yl]-6,7,12,13-tetrahydro-5-oxo-5H-indolo[2,3-a]pyrrolo[3,4-c]carbazole], the IC50 falls from 1010 nM to 45 nM (22-fold). The second is the more potent here.

First: O=C1NCc2c1c1c3ccccc3n3c1c1c2c2ccccc2n1CC(O)(COC(=O)N1CCC(N2CCCC2)CC1)C3 (stereo not drawn) [Cpd 150, 12,13-{2-hydroxy-2-[(4-pyrrolidin-1-yl-piperidin-1-yl)carbonyloxymethyl]-propan-1,3-yl}-6,7,12,13-tetrahydro-5-oxo-5H-indolo[2,3-a]pyrrolo[3,4-c]carbazole]
Second: O=C1NCc2c1c1c3ccccc3n3c1c1c2c2ccccc2n1CC(O)(COC(=O)N1CCN(C2CCCCC2)CC1)C3 (stereo not drawn) [Cpd 142, 12,13-{2-hydroxy-2-[(4-cyclohexyl-piperazin-1-yl)carbonyloxymethyl]-propan-1,3-yl}-6,7,12,13-tetrahydro-5-oxo-5H-indolo[2,3-a]pyrrolo[3,4-c]carbazole]
The IC50 of the first is lower: 45 nM for the first, over 200 nM for the second. The first is the more potent here.

`O=C1NC(=O)c2c1c1c3ccccc3n3c1c1c2c2ccccc2n1CC(O)(C(=O)N1CCN(CCN2CCOCC2)CC1)C(O)C3` (stereo not drawn) [Cpd 134, 12,13-(2-{[4-(2-morpholin-4-yl-ethyl)piperazin-1-yl]carbonyl}-2,3-dihydroxy-butan-1,4-yl)-12,13-dihydro-5,7-dioxo-6H-indolo[2,3-a]pyrrolo[3,4-c]carbazole] and `O=C1NC(=O)c2c1c1c3ccccc3n3c1c1c2c2ccccc2n1CC(OC(=O)N1CCN(CCN2CCCC2=O)CC1)CC3` (stereo not drawn) [Cpd 57, 12,13-[2-({4-[2-(2-oxo-pyrrolidin-1-yl)ethyl]piperazin-1-yl}carbonyloxy)-butan-1,4-yl]-12,13-dihydro-5,7-dioxo-6H-indolo[2,3-a]pyrrolo[3,4-c]carbazole] are within 1.5-fold of each other in IC50: 53 nM for the first, 41 nM for the second.

Going from `CN1CCC(NCc2ccc3c(c2)c2c4c(c5c6ccccc6n6c5c2n3CC(O)C(O)C6)CNC4=O)CC1` (stereo not drawn) [Cpd 195, 3-[(1-methyl-piperidin-4-yl)aminomethyl]-12,13-(2,3-dihydroxy-butan-1,4-yl)-6,7,12,13-tetrahydro-5-oxo-5H-indolo[2,3-a]pyrrolo[3,4-c]carbazole] to `CN1CCN(CCCNCc2ccc3c(c2)c2c4c(c5c6ccccc6n6c5c2n3CC(O)C(O)C6)CNC4=O)CC1` (stereo not drawn) [Cpd 197, 3-{[3-(4-methyl-piperazin-1-yl)prop-1-yl]aminomethyl}-12,13-(2,3-dihydroxy-butan-1,4-yl)-6,7,12,13-tetrahydro-5-oxo-5H-indolo[2,3-a]pyrrolo[3,4-c]carbazole], the IC50 rises from 284 nM to 693 nM (2.4-fold). The first is the more potent here.

Going from `O=C(NCCCN1CCCC1=O)OCC1(O)Cn2c3ccccc3c3c4c(c5c6ccccc6n(c5c32)C1)C(=O)NC4` (stereo not drawn) [Cpd 140, 12,13-(2-hydroxy-2-{[3-(2-oxo-pyrrolidin-1-yl)-prop-1-yl]carbamoyloxymethyl}-propan-1,3-yl)-6,7,12,13-tetrahydro-5-oxo-5H-indolo[2,3-a]pyrrolo[3,4-c]carbazole] to `O=C1NCc2c1c1c3cc(/C=C/CNC4=NCCN4)ccc3n3c1c1c2c2ccccc2n1CC(CO)C3` (stereo not drawn) [Cpd 221, 3-{(1E)-3-[(4,5-dihydro-1H-imidazol-2-yl)amino]-prop-1-en-1-yl}-12,13-(2-hydroxymethyl-propan-1,3-yl)-6,7,12,13-tetrahydro-5-oxo-5H-indolo[2,3-a]pyrrolo[3,4-c]carbazole], the IC50 falls from 72 nM to 31 nM (2.3-fold).

In the case of `CC(C)OCc1ccc2c(c1)c1c3c(c4c5cc(COC(C)C)ccc5n5c4c1n2CC(CO)C5)C(=O)NC3` (stereo not drawn) [Cpd 210, 3,9-bis-(isopropoxymethyl)-12,13-(2-hydroxymethyl-propan-1,3-yl)-6,7,12,13-tetrahydro-5-oxo-5H-indolo[2,3-a]pyrrolo[3,4-c]carbazole], the IC50 is reported as 1050 nM.
